Laboratory results as given in ChEMBL document CHEMBL1137558, “Synthesis and biological evaluation of new 2-arylcarbonyl-3-trifluoromethylquinoxaline 1,4-di-N-oxide derivatives and their reduced analogues” (2007).

Experiments:
Assay type in all cases: functional
[1] = Anticancer activity against ovarian cancer cells; details: Homo sapiens, Cancer cell lines
[2] = Anticancer activity against leukemia cells; details: Homo sapiens, Leukemia cell
[3] = Anticancer activity against nonsmall lung cancer cells; details: Homo sapiens, Cancer cell lines
[4] = Anticancer activity against colon cancer cells; details: Homo sapiens, Cancer cell lines
[5] = Anticancer activity against CNS cancer cells; details: Homo sapiens, Cancer cell lines
[6] = Anticancer activity against human NCI60 cells; details: for CC50: read-out: LC50 (the source's name)
[7] = Anticancer activity against renal cancer cells; details: Homo sapiens, Cancer cell lines
[8] = Anticancer activity against prostate cancer cells; details: Homo sapiens, Cancer cell lines
[9] = Anticancer activity against breast cancer cells; details: Homo sapiens, Cancer cell lines
[10] = Anticancer activity against melanoma cells; details: Homo sapiens, Melanoma cell

Compound | GI50 [1] [nM] | GI50 [2] [nM] | GI50 [3] [nM] | GI50 [4] [nM] | GI50 [5] [nM] | GI50 [6] [nM] | TGI [6] [nM] | CC50 [6] [nM] | GI50 [7] [nM] | GI50 [8] [nM] | GI50 [9] [nM] | GI50 [10] [nM]
O=C(c1ccco1)c1c(C(F)(F)F)[n+]([O-])c2cc(F)c(F)cc2[n+]1[O-] | 390 | 430 | 730 | 190 | 370 | 380 | 1480 | 7760 | 360 | 420 | 200 | 560
O=C(c1ccco1)c1nc2cc(C(F)(F)F)ccc2[n+]([O-])c1C(F)(F)F | 42500 | 51100 | 48100 | 41400 | 45500 | 45700 | 97700 | > 100000 | 60600 | 51900 | 32000 | 42900
O=C(c1ccco1)c1c(C(F)(F)F)[n+]([O-])c2cc(Cl)c(Cl)cc2[n+]1[O-] | 1650 | 270 | 280 | 500 | 790 | 630 | 3090 | 11000 | 310 | 330 | 1380 | 1570
Cc1ccc2c(c1)[n+]([O-])c(C(=O)c1ccco1)c(C(F)(F)F)[n+]2[O-] | 850 | 260 | 470 | 1170 | 740 | 660 | 3470 | 17800 | 580 | 240 | 660 | 880
O=C(c1ccco1)c1nc2ccc(C(F)(F)F)cc2[n+]([O-])c1C(F)(F)F | 43000 | 48400 | 41900 | 75100 | 35500 | 47900 | 95500 | > 100000 | 49700 | 35100 | 59100 | 46100
O=C(c1ccco1)c1nc2cc(C(F)(F)F)ccc2nc1C(F)(F)F | 90800 | 54000 | 81500 | 100000 | 75900 | 87100 | 97700 | > 100000 | 100000 | 100000 | 84000 | 100000
O=C(c1ccco1)c1c(C(F)(F)F)[n+]([O-])c2ccccc2[n+]1[O-] | 1450 | 70 | 350 | 510 | 400 | 410 | 5130 | 26900 | 330 | 200 | 760 | 670
COc1ccc2c(c1)[n+]([O-])c(C(=O)c1cccs1)c(C(F)(F)F)[n+]2[O-] | 4990 | 4430 | 3930 | 7080 | 6240 | 5010 | 29500 | 49000 | 5110 | 2480 | 4920 | 5890
O=C(c1cccs1)c1c(C(F)(F)F)[n+]([O-])c2ccc(Cl)cc2[n+]1[O-] | 160 | 70 | 70 | 40 | 90 | 70 | 500 | 2190 | 30 |  | 80 | 120
O=C(c1cccs1)c1c(C(F)(F)F)[n+]([O-])c2cc(F)c(F)cc2[n+]1[O-] | 530 | 50 | 830 | 270 | 440 | 370 | 1620 | 9330 | 500 | 510 | 410 | 390
O=C(c1ccco1)c1c(C(F)(F)F)[n+]([O-])c2cc(C(F)(F)F)ccc2[n+]1[O-] | 650 | 130 | 480 | 280 | 810 | 470 | 1200 | 3890 | 490 | 190 | 480 | 860
O=C(c1ccco1)c1c(C(F)(F)F)nc2ccc(C(F)(F)F)cc2[n+]1[O-] | 29300 | 88100 | 39400 | 49800 | 25300 | 37200 | 83200 | > 100000 | 28600 | 38500 | 34300 | 31500
O=C(c1ccco1)c1c(C(F)(F)F)nc2cc(C(F)(F)F)ccc2[n+]1[O-] | 40400 | 43600 | 47700 | 85400 | 24400 | 46800 | 89100 | > 100000 | 34600 | 44700 | 38500 | 80600
O=C(c1cccs1)c1c(C(F)(F)F)[n+]([O-])c2ccc(C(F)(F)F)cc2[n+]1[O-] | 430 | 200 | 450 | 380 | 480 |  |  | 5500 | 310 | 200 | 500 | 900
COc1ccc2c(c1)[n+]([O-])c(C(=O)c1ccco1)c(C(F)(F)F)[n+]2[O-] | 2510 | 3960 | 3490 | 2510 | 3200 | 2820 | 18600 | 74100 | 1740 | 3160 | 2880 | 3030
Cc1ccc2c(c1)[n+]([O-])c(C(=O)c1cccs1)c(C(F)(F)F)[n+]2[O-] | 270 | 490 | 560 | 880 | 750 | 550 | 5500 | 33100 | 250 | 890 | 760 | 900
O=C(c1cccs1)c1c(C(F)(F)F)[n+]([O-])c2ccc(F)cc2[n+]1[O-] | 1170 | 270 | 1680 | 920 | 1630 | 1200 | 2880 | 9330 | 1650 | 1510 | 1190 | 1510
O=C(c1ccco1)c1c(C(F)(F)F)[n+]([O-])c2ccc(Cl)cc2[n+]1[O-] | 560 | 190 | 360 | 210 | 770 | 320 | 2570 | 10000 | 200 | 110 | 280 | 490
O=C(c1ccco1)c1c(C(F)(F)F)[n+]([O-])c2ccc(C(F)(F)F)cc2[n+]1[O-] | 720 | 210 | 760 | 570 | 910 | 600 | 1480 | 5010 | 430 | 420 | 570 | 1110
